The term IC50 denotes the concentration that gives 50% inhibition.

Data on 1 compound can be found in patent publication US20220079889A1, “USE OF CANNABANOIDS IN THE TREATMENT OF PROLIFERATIVE DIABETIC RETINOPATHY” (VERDANT PHARMACEUTICALS, LLC, priority 2020, published 2022).

Test [1] relates to IL-1β-induced corneal angiogenesis. The experiment in a line: IL-1β-induced corneal angiogenesis. The test is classed as in vivo, BALB/c mice. The settings on record: 0.3 mg/kg daily i.p.; compared with untreated controls. The protocol:
BALB/c mice were anesthetized by intraperitoneal (i.p.) injection of pentobarbital sodium (60 mg/kg). Hydron pellets (0.3 μl) containing 30 ng mouse IL-1β (401-ML, R&D Systems) were prepared and implanted into the corneas. Pellets were positioned 1 mm from the corneal limbus. Implanted eyes were treated with Bacitracin ophthalmic ointment (E. Fougera & Co.) to prevent infection. To block CB, mice received daily i.p. injections of a specific CBD. Compound II (R-tech Ueno Ltd., Tokyo, Japan) as described above. A daily dose of 0.3 mg/kg was administered at day 0 and continued until the sixth day after implantation. Two, four and six days after implantation, digital images of the corneal vessels were obtained and recorded using OpenLab software version 2.2.5 (Improvision Inc.) with standardized illumination and contrast and were saved onto disks. The quantitative analysis of new vessel growth in the mouse corneas was performed using Scion Image software (version 4.0.2, Scion Corp.).

The next test addresses T1, MAO-3 (Homo sapiens, UniProt P27338).
T1 sequence (P27338 1-520): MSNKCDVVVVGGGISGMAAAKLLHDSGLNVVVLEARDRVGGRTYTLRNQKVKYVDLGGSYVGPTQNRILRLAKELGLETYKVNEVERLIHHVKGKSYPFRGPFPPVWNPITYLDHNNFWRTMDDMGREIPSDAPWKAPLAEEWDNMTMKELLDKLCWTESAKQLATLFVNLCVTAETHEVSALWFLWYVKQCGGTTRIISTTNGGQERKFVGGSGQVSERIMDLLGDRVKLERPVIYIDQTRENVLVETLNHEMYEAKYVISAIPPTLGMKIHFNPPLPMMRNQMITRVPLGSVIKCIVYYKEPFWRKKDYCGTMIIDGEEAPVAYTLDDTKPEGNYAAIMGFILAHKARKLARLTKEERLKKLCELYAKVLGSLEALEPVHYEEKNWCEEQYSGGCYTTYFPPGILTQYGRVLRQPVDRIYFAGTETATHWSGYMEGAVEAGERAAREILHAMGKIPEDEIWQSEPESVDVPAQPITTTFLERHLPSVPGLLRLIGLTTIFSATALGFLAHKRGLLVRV
The settings on record: functionally related monoamine oxidase; read-out: IC50 against MAO-3; cited from earlier work.

Test [2] deals with T2, monoamine oxidase (MAO)-A (Homo sapiens, UniProt P21397).
T2 sequence (P21397 1-527): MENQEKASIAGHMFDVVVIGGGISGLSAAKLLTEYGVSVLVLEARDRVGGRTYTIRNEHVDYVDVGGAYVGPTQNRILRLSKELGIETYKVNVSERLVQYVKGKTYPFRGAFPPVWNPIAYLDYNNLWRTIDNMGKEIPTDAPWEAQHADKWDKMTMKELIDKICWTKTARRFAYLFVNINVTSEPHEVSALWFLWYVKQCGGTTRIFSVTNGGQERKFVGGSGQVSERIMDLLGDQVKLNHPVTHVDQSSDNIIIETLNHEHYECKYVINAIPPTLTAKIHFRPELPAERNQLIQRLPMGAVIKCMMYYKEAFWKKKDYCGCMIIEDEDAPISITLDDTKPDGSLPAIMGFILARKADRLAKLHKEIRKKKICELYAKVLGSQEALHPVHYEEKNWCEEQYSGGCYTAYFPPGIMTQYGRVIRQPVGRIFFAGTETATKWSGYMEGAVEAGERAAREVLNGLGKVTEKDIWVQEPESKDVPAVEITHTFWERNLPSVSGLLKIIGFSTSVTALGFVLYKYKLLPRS
The settings on record: functionally related monoamine oxidase; read-out: IC50 against MAO-A; cited from earlier work.

`CC(=O)Nc1nc(CCc2ccc(NC(=N)NN)cc2)c(Cc2ccc(S(C)(=O)=O)cc2)s1` [Compound II]: the “effect on corneal angiogenesis (in words)” value in test [1] is listed as “effectively suppresses corneal angiogenesis”. Further, the IC50 (on MAO-3; in test [2]) was above 10 µM throughout.
